Results from PubChem BioAssay (NCI).
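Cells were grown in 96-well plates and exposed to each compound for 48 hours at five concentrations; endpoints were interpolated linearly between bracketing concentrations, or set to the highest concentration if not reached. TGI is the concentration that stops growth completely.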

Columns and labels:
Assay in all cases: NCI tumour cell line growth inhibition, 48 h
NCI-H460 lung = system: NCI-H460 lung
KM12 colon = system: KM12 colon
OVCAR-5 ovarian = system: OVCAR-5 ovarian
SF-268 CNS = system: SF-268 CNS
HS 578T breast = system: HS 578T breast
HCC-2998 colon = system: HCC-2998 colon
UACC-257 melanoma = system: UACC-257 melanoma
M19-MEL melanoma = system: M19-MEL melanoma
EKVX NSCLC = system: EKVX NSCLC
MALME-3M melanoma = system: MALME-3M melanoma
SK-MEL-5 melanoma = system: SK-MEL-5 melanoma
MOLT-4 leukemia = system: MOLT-4 leukemia
PC-3 prostate = system: PC-3 prostate
RPMI-8226 leukemia = system: RPMI-8226 leukemia
MDA-MB-231 breast = system: MDA-MB-231 breast
XF 498 CNS = system: XF 498 CNS
DMS 273 small cell lung = system: DMS 273 small cell lung
K-562 leukemia = system: K-562 leukemia
T-47D breast = system: T-47D breast
NCI-H226 lung = system: NCI-H226 lung
OVCAR-4 ovarian = system: OVCAR-4 ovarian
HT29 colon = system: HT29 colon
P388 leukemia = system: P388 leukemia
M14 melanoma = system: M14 melanoma
SN12C renal = system: SN12C renal
786-0 renal = system: 786-0 renal
DMS 114 small cell lung = system: DMS 114 small cell lung
NCI/ADR-RES ovarian = system: NCI/ADR-RES ovarian
SR leukemia = system: SR leukemia
HL-60(TB) leukemia = system: HL-60(TB) leukemia
RXF 393 renal = system: RXF 393 renal
UACC-62 melanoma = system: UACC-62 melanoma
UO-31 renal = system: UO-31 renal
MDA-MB-435 = system: MDA-MB-435
MDA-N = system: MDA-N
HOP-92 NSCLC = system: HOP-92 NSCLC
SNB-19 CNS = system: SNB-19 CNS
BT-549 breast = system: BT-549 breast
IGROV1 ovarian = system: IGROV1 ovarian
HOP-18 NSCLC = system: HOP-18 NSCLC
P388/ADR leukemia = system: P388/ADR leukemia
SNB-75 CNS = system: SNB-75 CNS
SN12K1 renal = system: SN12K1 renal
OVCAR-8 ovarian = system: OVCAR-8 ovarian
TK-10 renal = system: TK-10 renal
LOX IMVI melanoma = system: LOX IMVI melanoma
SF-539 CNS = system: SF-539 CNS
CAKI-1 renal = system: CAKI-1 renal
DLD-1 colon = system: DLD-1 colon
CCRF-CEM leukemia = system: CCRF-CEM leukemia
OVCAR-3 ovarian = system: OVCAR-3 ovarian
SK-MEL-2 melanoma = system: SK-MEL-2 melanoma
KM20L2 colon = system: KM20L2 colon
HCT-116 colon = system: HCT-116 colon
SK-MEL-28 melanoma = system: SK-MEL-28 melanoma
DU-145 prostate = system: DU-145 prostate
NCI-H522 lung = system: NCI-H522 lung
COLO 205 colon = system: COLO 205 colon
A549 NSCLC = system: A549 NSCLC
SW-620 colon = system: SW-620 colon
SK-OV-3 ovarian = system: SK-OV-3 ovarian
HOP-62 NSCLC = system: HOP-62 NSCLC
MCF7 breast = system: MCF7 breast
SNB-78 CNS = system: SNB-78 CNS
HCT-15 colon = system: HCT-15 colon
NCI-H23 lung = system: NCI-H23 lung
SF-295 CNS = system: SF-295 CNS
A498 renal = system: A498 renal
U251 CNS = system: U251 CNS
ACHN renal = system: ACHN renal
LXFL 529 NSCLC = system: LXFL 529 NSCLC
RXF-631 renal = system: RXF-631 renal

NC1=NCN(C2OC(CO)C(O)C2O)C(=O)N1 (configuration not stated)
TGI (NCI-H460 lung): 294 µM | TGI (KM12 colon): 674 µM | TGI (OVCAR-5 ovarian): 2150 µM | TGI (SF-268 CNS): 2460 µM | TGI (HS 578T breast): 734 µM | TGI (HCC-2998 colon): 1190 µM | TGI (UACC-257 melanoma): 1430 µM | TGI (M19-MEL melanoma): 1760 µM | TGI (EKVX NSCLC): 1870 µM | TGI (MALME-3M melanoma): 128 µM | TGI (SK-MEL-5 melanoma): 335 µM | TGI (MOLT-4 leukemia): 152 µM | TGI (PC-3 prostate): 1530 µM | TGI (RPMI-8226 leukemia): 159 µM | TGI (MDA-MB-231 breast): 568 µM | TGI (XF 498 CNS): 197 µM | TGI (DMS 273 small cell lung): 620 µM | TGI (K-562 leukemia): 788 µM | TGI (T-47D breast): 759 µM | TGI (NCI-H226 lung): 414 µM | TGI (OVCAR-4 ovarian): 1510 µM | TGI (HT29 colon): 2000 µM | TGI (P388 leukemia): 229 µM | TGI (M14 melanoma): 405 µM | TGI (SN12C renal): 1680 µM | TGI (786-0 renal): 2050 µM | TGI (DMS 114 small cell lung): 437 µM | TGI (NCI/ADR-RES ovarian): 2270 µM | TGI (SR leukemia): 278 µM | TGI (HL-60(TB) leukemia): 18.4 µM | TGI (RXF 393 renal): 218 µM | TGI (UACC-62 melanoma): 241 µM | TGI (UO-31 renal): 872 µM | TGI (MDA-MB-435): 154 µM | TGI (MDA-N): 381 µM | TGI (HOP-92 NSCLC): 1990 µM | TGI (SNB-19 CNS): 2220 µM | TGI (BT-549 breast): 765 µM | TGI (IGROV1 ovarian): 299 µM | TGI (HOP-18 NSCLC): 1060 µM | TGI (P388/ADR leukemia): 196 µM | TGI (SNB-75 CNS): 392 µM | TGI (SN12K1 renal): 619 µM | TGI (OVCAR-8 ovarian): 1870 µM | TGI (TK-10 renal): 1730 µM | TGI (LOX IMVI melanoma): 135 µM | TGI (SF-539 CNS): 342 µM | TGI (CAKI-1 renal): 339 µM | TGI (DLD-1 colon): 1560 µM | TGI (CCRF-CEM leukemia): 541 µM | TGI (OVCAR-3 ovarian): 361 µM | TGI (SK-MEL-2 melanoma): 7.06 µM | TGI (KM20L2 colon): 1530 µM | TGI (HCT-116 colon): 143 µM | TGI (SK-MEL-28 melanoma): 1660 µM | TGI (DU-145 prostate): 1330 µM | TGI (NCI-H522 lung): 144 µM | TGI (COLO 205 colon): 584 µM | TGI (A549 NSCLC): 1080 µM | TGI (SW-620 colon): 1340 µM | TGI (SK-OV-3 ovarian): 943 µM | TGI (HOP-62 NSCLC): 966 µM | TGI (MCF7 breast): 328 µM | TGI (SNB-78 CNS): 1780 µM | TGI (HCT-15 colon): 530 µM | TGI (NCI-H23 lung): 1500 µM | TGI (SF-295 CNS): 1460 µM | TGI (A498 renal): 804 µM | TGI (U251 CNS): 2410 µM | TGI (ACHN renal): 106 µM

O=c1oc2c3ccc4ccccc4c3n(CCN3CCCCC3)c2c2ccccc12
TGI (NCI-H460 lung): > 43.9 µM | TGI (KM12 colon): > 100 µM | TGI (OVCAR-5 ovarian): > 100 µM | TGI (SF-268 CNS): > 68.7 µM | TGI (LXFL 529 NSCLC): > 100 µM | TGI (HCC-2998 colon): > 100 µM | TGI (UACC-257 melanoma): > 100 µM | TGI (M19-MEL melanoma): > 100 µM | TGI (EKVX NSCLC): > 100 µM | TGI (MALME-3M melanoma): > 88.6 µM | TGI (RXF-631 renal): > 100 µM | TGI (SK-MEL-5 melanoma): > 100 µM | TGI (MOLT-4 leukemia): > 100 µM | TGI (RPMI-8226 leukemia): > 100 µM | TGI (XF 498 CNS): 42.9 µM | TGI (DMS 273 small cell lung): > 100 µM | TGI (K-562 leukemia): > 100 µM | TGI (OVCAR-4 ovarian): > 62 µM | TGI (HT29 colon): 53.4 µM | TGI (M14 melanoma): > 100 µM | TGI (SN12C renal): > 100 µM | TGI (786-0 renal): 27.9 µM | TGI (DMS 114 small cell lung): > 100 µM | TGI (SR leukemia): > 100 µM | TGI (HL-60(TB) leukemia): > 100 µM | TGI (RXF 393 renal): 29.3 µM | TGI (UACC-62 melanoma): > 78.8 µM | TGI (UO-31 renal): > 100 µM | TGI (HOP-92 NSCLC): > 100 µM | TGI (SNB-19 CNS): > 100 µM | TGI (IGROV1 ovarian): > 100 µM | TGI (HOP-18 NSCLC): > 100 µM | TGI (SNB-75 CNS): 19.6 µM | TGI (OVCAR-8 ovarian): > 67.3 µM | TGI (TK-10 renal): > 100 µM | TGI (LOX IMVI melanoma): > 100 µM | TGI (SF-539 CNS): > 49.4 µM | TGI (CAKI-1 renal): > 100 µM | TGI (DLD-1 colon): > 100 µM | TGI (CCRF-CEM leukemia): > 91.7 µM | TGI (OVCAR-3 ovarian): 54.1 µM | TGI (SK-MEL-2 melanoma): 65.6 µM | TGI (KM20L2 colon): > 100 µM | TGI (HCT-116 colon): > 100 µM | TGI (SK-MEL-28 melanoma): > 100 µM | TGI (NCI-H522 lung): > 100 µM | TGI (COLO 205 colon): > 100 µM | TGI (A549 NSCLC): > 100 µM | TGI (SW-620 colon): > 100 µM | TGI (SK-OV-3 ovarian): > 78.5 µM | TGI (HOP-62 NSCLC): 58.9 µM | TGI (SNB-78 CNS): > 31.6 µM | TGI (HCT-15 colon): > 100 µM | TGI (NCI-H23 lung): > 69.5 µM | TGI (SF-295 CNS): 39.3 µM | TGI (U251 CNS): 65 µM | TGI (ACHN renal): > 100 µM
